Assay results taken from a melting point compilation (Tetko et al.; mined from patent text by program, amines drawn as free bases though some values may be those of a salt).

melting point | SMILES
196 to 198 °C | COc1cc2c(Nc3ccc(Sc4nccn4C)c(Cl)c3)c(C#N)cnc2cc1OCCCN1CCC(N2CCCC2)CC1
112 to 115 °C | O=S(=O)(CCNc1ccccc1)NCCCOc1cccc(CN2CCCCC2)c1
136 to 137 °C | O=C(CCc1oc(-n2cnc3ccccc32)nc1-c1ccc(Cl)cc1)N1CCS(=O)(=O)C1
106 to 107 °C | Cc1ccc(-c2n[nH]c3ccccc23)cc1
57 to 59 °C | Brc1sc2ccccc2c1Br
70 to 77 °C | FC(F)(c1ccccc1)C(F)(F)c1ccccc1CBr
132 to 134 °C | O=C(c1ccc(Cl)cc1)c1ccc2c(c1)C(=O)N(Cc1cccnc1)C2=O
135 to 140 °C | CN1C(=O)CC2(c3ccccc3)CCCC3OC32C1=O (stereo not given)
120 °C | Cc1cccc(COn2nnc3ccc(Cn4ccnc4)cc32)c1
220 to 222 °C | CCOCc1cc(I)c(=O)[nH]c1C
109 to 110 °C | O=C(OC(c1ccccc1)c1ccccc1)C(OC(=S)n1ccnc1)c1ccccc1 (stereo not given)
128 °C | O=C(O)Cc1ccccc1N1CCOCC1
149 to 150 °C | COc1ccc2c(c1)[C@H]1Cc3c(cc(C)c(OC)c3C)[C@H]1N2 (relative stereo)
82 to 83 °C | COCCN(CCOC)C(=O)c1ccc(C(=O)N2CCN(c3ncccc3NC(C)C)CC2)cc1
171 to 175 °C | Cc1cc(C2=NN(C(=O)NC3CC3)C(C)Cc3cc4c(cc32)OCO4)ccc1[N+](=O)[O-] (stereo not given)
186 to 188 °C | COc1ccccc1N1CCN(CCn2c(=O)c3cscc3n(CCC(=O)O)c2=O)CC1
119 °C | Cc1cc(N(C)[C@H]2CN(C(=O)CC#N)CC[C@H]2C)n2ncnc2n1
150 to 152 °C | CN(CCOc1ccc(NS(C)(=O)=O)cc1)CCc1ccc(NS(C)(=O)=O)cc1
> 300 °C | COc1ccccc1C=Cc1nc2c([nH]1)c(=O)n(C)c(=O)n2C
201 to 203 °C | O=C(O)CCNC(=O)c1ccccc1SSc1ccccc1C(=O)NCCC(=O)O
95 to 96 °C | COc1cccc2c1Sc1ccc(Cl)cc1C2
170 °C | CS(=O)(=O)C(=C1CN(C(c2ccccc2)c2ccccc2)C1)c1ccc(Cl)c(Cl)c1

melting point | SMILES
173 to 175 °C | O=C(O)Cn1cc(C(=O)O)c(=O)c2cccc(Br)c(=O)c21
92 to 97 °C | CCOC(=O)CC[C@H](NC(=O)c1ccc(N)c(F)c1)C(=O)OCC
64 to 65 °C | CCCCCCCCCCCCC1(Cc2cc(N=Nc3ccc([N+](=O)[O-])cc3[N+](=O)[O-])ccc2O)COCCOCC(C)(C)COCCOC1
110 °C | CC(C)CCCC(C)C1CCC2C3CC=C4CC(OCCCCCCSC5OC(CO)C(O)C(O)C5O)CCC4(C)C3CCC12C (stereo not given)
57 to 59 °C | CCCSc1cc(-c2ccc(C(F)(F)F)cc2)c(F)cc1[N+](=O)[O-]
178 to 182 °C | CCCc1nc2c(N)nc3cc(OC4CCOC4)ccc3c2n1CC(C)C (stereo not given)
201 to 202 °C | COc1ccc(C2=NN(C3CCCC3)C(=O)[C@H]3CC=CC[C@@H]23)cc1Cl (relative stereo)
188 to 190 °C | COc1ccc(Sc2nn(-c3ccc(OC)cc3)c(=O)c(C#N)c2C)cc1
54 to 57 °C | COC(=O)c1ccc(N(C)C)cc1C(=O)OC
207 to 210 °C | O=C1C(c2cc3c(cc2O)OCCC3)c2ccccc2N1C(c1ccccc1)c1ccccc1 (stereo not given)
75 to 76 °C | COc1cc(CCCC(O)C(=O)OC(C)C)ccc1OCc1nc(-c2ccco2)oc1C (stereo not given)
191 to 192 °C | COC(=O)C(=CNc1ccc(O)cc1)C(=O)C=Cc1ccc2ccccc2c1
211 to 213 °C | CN(C)S(=O)(=O)c1cc(N)c(N)c([N+](=O)[O-])c1
176 to 177 °C | COc1ccc2c(c1)Cc1nnc(S(C)=O)n1C=C2 (stereo not given)
75 to 77 °C | Cc1cc(OC2CCCC2)ccc1NC(=O)OC(C)(C)C
143 to 144 °C | COc1nnc(-c2ccc3occ(-c4ccc(OC(F)(F)F)cc4)c3c2)o1
74 °C | C#CCOc1cc(OCC#C)ncn1
85 to 132 °C | N=C(N)Nc1ncc(CSCCNC2=NS(=O)N=C2N)s1 (stereo not given)
164 to 165 °C | COc1cc(Sc2nc(C)c(CC(=O)O)s2)nc(OC)n1
225 to 227 °C | CC12CCC(C1)C1(C)Oc3ccc(C(=O)/C=C/c4ccc(C(=O)O)cc4)cc3C21C (stereo not given)
83 to 84 °C | O=C(O)CCCCCCCCCCn1c(-c2ccccc2)c(-c2ccccc2)n(-c2ccccc2)c1=O
120 °C | CNC(=O)C(=N[C@@H](C)c1ccccc1)C(C)(C)C

melting point | SMILES
122 to 126 °C | O=C1N(CC2OC(O)C(O)C(O)C2O)c2ccccc2C12COc1cc3c(cc12)OCCO3 (stereo not given)
129 to 132 °C | CN(CCc1ccncc1)C(=O)CCSc1cc(C(C)(C)C)c(O)c(C(C)(C)C)c1
170 to 172 °C | COc1cc2c(cc1OC)C(C=Cc1ccc(N(C)C)cc1)=NN=C(C)C2
238 to 240 °C | CN1CCN(c2ccc(NC(=O)n3ccc4cc(Oc5cc(CC(N)=O)ncn5)ccc43)cc2C(F)(F)F)CC1
181 to 183 °C | N#Cc1ccc2c(c1)OCC21C(=O)N(Cc2ccc3c(c2)OCCO3)c2ccccc21 (stereo not given)
71 to 72 °C | COc1cc(CO)c(OC)c(C)c1C
226 °C | CCOC(=O)c1cn(C)c2cnc3cc(F)c(N4CCN(c5cccc(OC)c5)C(C)C4)cc3c2c1=O (stereo not given)
56 to 67 °C | C=CCN1CC(OC(=O)c2ccccc2)CC1=O (stereo not given)
223 to 225 °C | Oc1c(Br)cc(-c2c3ccccc3c(C(F)(F)F)c3sc4ccccc4c23)cc1Br
87 to 89 °C | O=[N+]([O-])c1ccc2c(c1Br)OCO2
81 to 82 °C | COc1cc(CCCCCC2OCCO2)ccc1OCc1nc(-c2ccccc2)oc1C
162 to 163 °C | CCOCc1nc2c(N)nc3ccccc3c2n1CC1CC(c2ccccc2)N(C)O1 (stereo not given)
58 °C | CCOC(=O)C(C)(Cc1cccnc1)S(=O)(=O)c1ccc(OC)cc1 (stereo not given)
161 to 162 °C | Cc1ccccc1C1c2cc(NC(=O)CC(C)(C)C)c(C)c(C)c2OC1(C)C (stereo not given)
70 to 83 °C | CC(C)(CC(=O)O)CC(=O)NC1(C(=O)NCCCCNc2ncccn2)Cc2ccccc2C1
151 to 152 °C | Nc1cccc(Cc2cc(O)ccc2O)c1
110 °C | NC(=O)NCCS(=O)Cc1ccccc1 (stereo not given)
159 to 160 °C | O=C(CCc1ccccc1)Nc1cc(-c2nnc(SCc3cccc(C(F)(F)F)c3)o2)ccn1
158 to 160 °C | ON=Cc1c[nH]cc1-c1cccc(Cl)c1Cl
187 to 188 °C | Cc1nnc(-c2ccc3occ(-c4cc(Cl)ccc4F)c3c2)o1
245 to 250 °C | CC12CCC(O)CC1=CCC1C2CCC2(C)C(=C(C#N)CC(=O)O)CCC12 (stereo not given)

SMILES | melting point
CC(C)OC(=O)C1C2CCC(C2)C1n1cc(F)c(=O)[nH]c1=O (stereo not given) | 135 to 136 °C
CC[C@@]1(O)C(=O)OCc2c1cc1n(c2=O)Cc2c-1nc1ccc(C)c3c1c2C(NC(C)=O)CN3 (stereo not given in full) | 225 to 235 °C
CN1c2ccc(F)cc2C(c2ccccc2)=NCC1CCl (stereo not given) | 173 to 188 °C
COc1cc(NC2=NCC3(CN4CCC3CC4)O2)ncn1 (stereo not given) | 80 to 85 °C
CC(C)(C)NCC(=O)c1cccc2cc(O)c(O)cc12 | 140 to 144 °C
